Assay results taken from ChEMBL document CHEMBL4665662, “Designed P-glycoprotein inhibitors with triazol-tetrahydroisoquinoline-core increase doxorubicin-induced mortality in multidrug resistant K562/A02 cells” (Bioorg Med Chem, 2019).
The source made the active and inactive calls. No cut-off for these calls is given here.

How the values were obtained:
[1] = system: K562; assay: Cytotoxicity against human K562 cells assessed as cell growth inhibition after 48 hrs by MTT assay; assay type: cell-based; settings: K562, 48 h
[2] = system: K562/A02; assay: (§1) Reversal of P-gp mediated multidrug resistance in human K562/A02 cells overexpressing P-gp assessed as fold reduction in doxorubicin IC50 at 5 uM after 48 hrs by MTT assay relative to control; assay type: cell-based
[3] = system: K562/A02; assay: Cytotoxicity against human K562/A02 cells overexpressing P-gp assessed as cell growth inhibition after 48 hrs by MTT assay; assay type: cell-based; settings: K562/A02, 48 h
[4] = system: K562/A02; assay: Inhibition of P-gp overexpressed in human K562/A02 cells assessed as increase doxorubicin accumulation at 5 uM preincubated for 60 mins followed by doxorubicin addition and measured after 90 mins by fluorescence spectrophotometry analysis; assay type: cell-based
[5] = system: K562/A02; assay: Inhibition of P-gp overexpressed in human K562/A02 cells assessed as increase in doxorubicin accumulation preincubated for 60 mins followed by doxorubicin addition and measured after 90 mins by fluorescence spectrophotometry analysis; assay type: cell-based; settings: dose microM 0.5-5, time 60.0 min
[6] = system: K562/A02; assay: Inhibition of P-gp overexpressed in human K562/A02 cells assessed as increase in doxorubicin accumulation at 0.1 uM preincubated for 60 mins followed by doxorubicin addition and measured after 90 mins by fluorescence spectrophotometry analysis; assay type: cell-based
[7] = system: K562/A02; assay: as §1, with “uM preincubated for 24 hrs followed by compound washout and 24 hrs later incubated with doxorubicin and measured” for “uM”; assay type: cell-based
[8] = system: K562/A02; assay: Reversal of P-gp mediated multidrug resistance in human K562/A02 cells overexpressing P-gp assessed as potentiation of doxorubicin-induced mortality by measuring reduction in doxorubicin IC50 at 10 nM measured after 48 hrs by MTT assay; assay type: cell-based
[9] = system: K562/A02; assay: Reversal of P-gp mediated multidrug resistance in human K562/A02 cells overexpressing P-gp assessed as fold reduction in doxorubicin IC50 at 5 uM preincubated for 24 hrs followed by compound washout and 6 hrs later incubated with doxorubicin and measured after 48 hrs by MTT assay relative to control; assay type: cell-based
[10] = system: K562/A02; assay: Effect on P-gp expression in human K562/A02 cells overexpressing P-gp at 0.5 to 5 uM after 72 hrs by Western blot analysis; assay type: functional, cell-based; settings: dose microM 0.5-5, time 72.0 hrs
[11] = system: K562/A02; assay: Reversal of P-gp mediated multidrug resistance in human K562/A02 cells overexpressing P-gp assessed as time duration of action for reversal of doxorubicin-induced cytotoxicity at 5 uM preincubated for 24 hrs followed by compound washout and later incubated with doxorubicin and measured after 48 hrs by MTT assay; assay type: cell-based
[12] = Reversal of P-gp mediated multidrug resistance in human K562/A02 cells overexpressing P-gp assessed as potentiation of doxorubicin-induced mortality by measuring reduction in doxorubicin IC50 measured after 48 hrs by MTT assay; assay type: cell-based; settings: K562/A02, 48 h
[13] = system: K562/A02; assay: (§2) Reversal of P-gp mediated multidrug resistance in human K562/A02 cells overexpressing P-gp assessed as fold reduction in doxorubicin IC50 at 5 uM preincubated for 24 hrs followed by compound washout and later incubated with doxorubicin and measured after 48 hrs by MTT assay relative to control; assay type: cell-based
[14] = system: K562/A02; assay: as §2, with “washout and 12 hrs later incubated” for “washout and later incubated”; assay type: cell-based
[15] = system: K562/A02; assay: Reversal of P-gp mediated multidrug resistance in human K562/A02 cells overexpressing P-gp assessed as inhibition of Rh123 efflux by measuring remaining mean fluorescence intensity at 2 uM pretreated with Rh123 for 60 mins followed by incubation with compound for 90 mins by FACSCalibur flow cytometry analysis; assay type: cell-based

SMILES	IC50 ([1]; read-out: IC50) [µM]	Ratio IC50 [2]	IC50 [3] [µM]	further results
COc1cc2c(cc1OC)CN(CCc1ccc(-n3cc(CNc4ccccc4NC(=O)c4ccsc4C)nn3)cc1)CC2	> 100	10.9	59.6	
COc1cc2c(cc1OC)CN(CCn1cc(CNc3ccccc3NC(=O)c3ccc(C)s3)nn1)CC2		2.86	> 100	
COc1cc2c(cc1OC)CN(CCn1cc(CNc3ccccc3NC(=O)c3cccs3)nn1)CC2		2.03	> 100	
COc1cc2c(cc1OC)CN(CCn1cc(CNc3ccccc3NC(=O)c3cccnc3Cl)nn1)CC2		1.28	> 100	
COc1cc2c(cc1OC)CN(CCn1cc(CNc3ccccc3NC(=O)c3sccc3C)nn1)CC2		3.09	> 100	
COc1cc2c(cc1OC)CN(CCn1cc(CNc3ccccc3NC(=O)c3ccc(Cl)s3)nn1)CC2		3.38	> 100	
COc1cc2c(cc1OC)CN(CCn1cc(CNc3ccccc3NC(=O)c3ccsc3)nn1)CC2		2.27	> 100	
COc1cc2c(cc1OC)CN(CCc1ccc(-n3cc(CNc4ccccc4NC(=O)c4ccncc4)nn3)cc1)CC2	> 100	1.09	> 100	
COc1cc2c(cc1OC)CN(CCc1ccc(-n3cc(CNc4ccccc4NC(=O)c4ccco4)nn3)cc1)CC2	25.8	11.2	58.4	
COc1cc2c(cc1OC)CN(CCn1cc(CNc3ccccc3NC(=O)c3ccncc3)nn1)CC2		3.74	> 100	
COc1cccc2c1C(=O)c1c(O)c3c(c(O)c1C2=O)C[C@@](O)(C(=O)CO)C[C@@H]3O[C@H]1C[C@H](N)[C@H](O)[C@H](C)O1 [DOXORUBICIN]			55.5	
COc1cc2c(cc1OC)CN(CCn1cc(CNc3ccccc3NC(=O)c3cc4ccccc4[nH]3)nn1)CC2		4.16	> 100	
COc1ccc(CCN(C)CCCC(C#N)(c2ccc(OC)c(OC)c2)C(C)C)cc1OC (stereo unspecified)			59.2	inhibition [4]: Active; IC50 [1]: 68.3 µM; inhibition [5]: Dose-dependent effect
COc1cc2c(cc1OC)CN(CCc1ccc(-n3cc(CNc4ccccc4NC(=O)c4cnc5ccccc5c4)nn3)cc1)CC2	> 100	3.82	> 100	
COc1cc2c(cc1OC)CN(CCc1ccc(-n3cc(CNc4ccccc4NC(=O)c4ccc5ccccc5n4)nn3)cc1)CC2	> 100	13.3	58.1	
COc1cc2c(cc1OC)CN(CCc1ccc(-n3cc(CNc4ccccc4NC(=O)c4cccnc4Cl)nn3)cc1)CC2	42.7	2.79	47	
COc1cc2c(cc1OC)CN(CCc1ccc(-n3cc(CNc4ccccc4NC(=O)c4cccs4)nn3)cc1)CC2	> 100	21.2	60.7	
COc1cc2c(cc1OC)CN(CCc1ccc(-n3cc(CNc4ccccc4NC(=O)c4ccc(Cl)s4)nn3)cc1)CC2	> 100	42	63.2	inhibition [6]: Active; Ratio IC50 [7]: 1.27; inhibition [8]: Active; inhibition [4]: Active; Ratio IC50 [9]: 7.08; Activity [10]: inactive; TIME [11]: > 24 h; EC50 [12]: 0.0468 µM; Ratio IC50 [13]: 17.1; Ratio IC50 [14]: 3.29; Activity [15]: > 50%; inhibition [5]: Dose-dependent effect
COc1cc2c(cc1OC)CN(CCn1cc(CNc3ccccc3NC(=O)c3ccccn3)nn1)CC2		3.88	> 100	
COc1cc2c(cc1OC)CN(CCc1ccc(-n3cc(CNc4ccccc4NC(=O)c4ccc(C)s4)nn3)cc1)CC2	> 100	21.8	> 100	
COc1cc2c(cc1OC)CN(CCc1ccc(-n3cc(CNc4ccccc4NC(=O)c4ccccn4)nn3)cc1)CC2	45.1	11.8	52.1	
COc1cc2c(cc1OC)CN(CCc1ccc(-n3cc(CNc4ccccc4NC(=O)c4ccsc4)nn3)cc1)CC2	> 100	22.8	65.9	
COc1cc2c(cc1OC)CN(CCc1ccc(NC(=O)c3cc(OC)c(OC)cc3NC(=O)c3cnc4ccccc4c3)cc1)CC2	18.4	42.3	30.1	Ratio IC50 [7]: 2.4; Ratio IC50 [9]: 10.2; Ratio IC50 [13]: 19.2; Ratio IC50 [14]: 4.12; inhibition [5]: Dose-dependent effect
COc1cc2c(cc1OC)CN(CCc1ccc(-n3cc(CNc4ccccc4NC(=O)c4cc5ccccc5[nH]4)nn3)cc1)CC2	> 100	6.57	> 100	
COc1cc2c(cc1OC)CN(CCn1cc(CNc3ccccc3NC(=O)c3ccco3)nn1)CC2		1.28	> 100	
